{"source": "patent US20050154022A1", "about": "“4-aryl piperidines” (H. Lundbeck A/S, priority 2004, published 2005)", "origin": "cited, not measured here", "details_in_all_cases": "see Borowsky et al. (2002)", "key": {"guinea pig": {"tested_on": "guinea pig"}, "rat [1]": {"tested_on": "rat"}, "rat [2]": {"tested_on": "rat", "remark": "listed apart in the source"}}}
{"compound": "COCC1=C(C(=O)OC)[C@H](c2ccc(F)c(F)c2)N(C(=O)NCCCN2CCC(c3cccc(NC(C)=O)c3)CC2)C(=O)N1", "note": "[SNAP-7941]", "values": [{"measurement": "effect in guinea pig maternal-separation vocalization test (animal model of depression/anxiety)", "setting": "guinea pig", "value": "effects similar to clinically used antidepressants and anxiolytics"}, {"measurement": "effect in rat social interaction test (animal model of depression/anxiety)", "setting": "rat [1]", "value": "effects similar to clinically used antidepressants and anxiolytics"}, {"measurement": "effect in rat forced-swim test (animal model of depression/anxiety)", "setting": "rat [2]", "value": "effects similar to clinically used antidepressants and anxiolytics"}]}
